{"source": "patent US20240300886A1", "about": "“ARYLCYCLOHEXYLAMINE DERIVATIVES AND THEIR USE IN THE TREATMENT OF PSYCHIATRIC DISORDERS” (GILGAMESH PHARMACEUTICALS, INC., priority 2021, published 2024)", "key": {"[1]": {"experiment": "Metabolic stability in Gottingen minipig liver microsomes (MPLM)", "assay_type": "in vitro ADME, Gottingen minipigs", "settings": "pooled minipig liver microsomes, pH 7.4, 1 μM compound, 0.50 mg protein/mL, NADPH", "protocol": "MPLM Stability. Pooled MPLM from Gottingen minipigs (Xenotech Z6000) were used. Microsomal incubations were carried out in multi-well plates. Liver microsomal incubation medium consisted of PBS (100 mM pH 7.4), MgCl2 (1 mM), and NADPH (1 mM), with 0.50 mg of liver microsomal protein per mL. Control incubations were performed by replacing the NADPH-cofactor system with PBS. Test compounds (1 μM, final solvent concentration 1.0%) were incubated with microsomes at 37° C. with constant shaking. Six time points over 60 minutes were analyzed, with 60 μL aliquots of the reaction mixture being drawn at each time point. The reaction aliquots were stopped by adding 180 μL of cold (4° C.) acetonitrile containing 200 ng/mL tolbutamide and 200 ng/mL labetalol as internal standards (IS), followed by shaking for 10 minutes, and then protein sedimentation by centrifugation at 4,000 rpm for 20 minutes at 4° C. Supernatant samples (80 μL) were diluted with water (240 μL) and analyzed for parent compound remaining using a fit-for-purpose liquid chromatography-tandem mass spectrometry (LC-MS/MS) method.\nData Analysis. The elimination constant (kel), half-life (t1/2) and intrinsic clearance (Clint) were determined in a plot of […] versus time, using linear regression analysis."}, "[2]": {"experiment": "Comparative metabolism/PK of 2R and deuterated 7R in rats after oral administration", "assay_type": "in vivo, Sprague Dawley rats", "settings": "for concentration at 0.083 h / concentration at 0.25 h / concentration at 0.5 h / concentration at 1 h / concentration at 2 h / concentration at 4 h: oral", "protocol": "Animals. Male Sprague Dawley rats were used in these studies. Animals were randomly assigned to treatment groups and were fasted for 4 h before dosing.\nDrugs. Test compounds 2R and 7R were dissolved in a vehicle consisting of normal saline. They were then administered orally (po) at a dose of 10 mg/kg (calculated based on freebase), and at a volume of 5 mL/kg body weight.\nSample Collection and Bioanalysis. Blood samples (approximately 60 μL) were collected under light isoflurane anesthesia (Surgivet®) from the retro orbital plexus at 0.08, 0.25, 0.5, 1, 2, 4, 8, and 24 h (4 animals per time point). Immediately after blood collection, plasma was harvested by centrifugation at 4,000 rpm for 10 min at 4° C. and samples were stored at −70±10° C. until bioanalysis. Following blood collection, animals were immediately sacrificed, the abdominal vena-cava was cut open, and the whole body was perfused from the heart using 10 mL of normal saline, and brain samples were collected from all animals. After isolation, brain samples were rinsed three times in ice-cold normal saline (for 5-10 seconds/rinse using ˜5-10 mL normal saline in disposable petri dish for each rinse) and dried on blotting paper. Brain samples were homogenized using ice-cold phosphate-buffered saline (pH 7.4) Total homogenate volume was three times the tissue weight. All homogenates were stored at −70±10° C. until bioanalysis. For bioanalysis, 25 μL aliquots of plasma/brain study samples or spiked plasma/brain calibration standards were added to individual pre-labeled micro-centrifuge tubes followed by 100 μL of an internal standard solution (glipizide, 500 ng/mL in acetonitrile) except for blanks, where 100 μL of acetonitrile was added. Samples were vortexed for 5 minutes and then centrifuged for 10 minutes at 4,000 rpm at 4° C. Following centrifugation, 100 μL of each clear supernatant was transferred to a 96 well plate and analyzed with a fit-for-purpose LC-MS/MS method, with authentic samples of each analyte used for calibration and identification. Concentrations of parent compound (2R or 7R) and metabolite 1R were determined in all samples.\nData Analysis. Pharmacokinetic parameters were estimated using the non-compartmental analysis tool of Phoenix® WinNonlin software (Ver 8.0)."}, "[3]": {"settings": "rat brain after 10 mg/kg po of 2R or 7R, parent or metabolite 1R as labelled, listed as 1R as metabolite of 2R"}, "[4]": {"settings": "rat brain after 10 mg/kg po of 2R or 7R, parent or metabolite 1R as labelled, listed as 1R as metabolite of 7R"}, "[5]": {"settings": "rat plasma after 10 mg/kg po of 2R or 7R, parent or metabolite 1R as labelled, listed as 1R as metabolite of 7R"}}, "note": "Where two headings read alike, the source gives them in different places."}
{"smiles": "CNC1(c2ccccc2Cl)CCCCC1=O", "note": "(racemic) [racemic ketamine, ketamine]", "values": [{"measurement": "half-life at 1 μM", "setting": "[1]", "result": 6.4, "unit": "min"}, {"measurement": "microsomal CLint at 1 μM", "setting": "[1]", "result": 218, "unit": "µL/min/mg"}]}
{"smiles": "N[C@@]1(c2ccc(F)cc2)CCCCC1=O", "note": "[Compound 1R, (R)-2-amino-2-(4-fluorophenyl)cyclohexan-1-one]", "values": [{"measurement": "concentration at 0.083 h", "setting": "[2]; male, Sprague Dawley, rat, brain, 10 mg/kg, rat brain, 0.083 h after 10 mg/kg po of 2R or 7R, read-out: Mean brain concentration", "result": 56, "unit": "ng/g"}, {"measurement": "concentration at 0.25 h", "setting": "[2]; male, Sprague Dawley, rat, brain, 10 mg/kg, rat brain, 0.25 h after 10 mg/kg po of 2R or 7R, read-out: Mean brain concentration", "result": 1470, "unit": "ng/g"}, {"measurement": "concentration at 0.5 h", "setting": "[2]; male, Sprague Dawley, rat, brain, 10 mg/kg, rat brain, 0.5 h after 10 mg/kg po of 2R or 7R, read-out: Mean brain concentration", "result": 3200, "unit": "ng/g"}, {"measurement": "concentration at 1 h", "setting": "[2]; male, Sprague Dawley, rat, brain, 10 mg/kg, rat brain, 1 h after 10 mg/kg po of 2R or 7R, read-out: Mean brain concentration", "result": 3500, "unit": "ng/g"}, {"measurement": "concentration at 2 h", "setting": "[2]; male, Sprague Dawley, rat, brain, 10 mg/kg, rat brain, 2 h after 10 mg/kg po of 2R or 7R, read-out: Mean brain concentration", "result": 2670, "unit": "ng/g"}, {"measurement": "concentration at 4 h", "setting": "[2]; male, Sprague Dawley, rat, brain, 10 mg/kg, rat brain, 4 h after 10 mg/kg po of 2R or 7R, read-out: Mean brain concentration", "result": 1610, "unit": "ng/g"}, {"measurement": "half-life", "setting": "[2]; male, Sprague Dawley, rat, brain, po, 10 mg/kg, rat brain after 10 mg/kg po of 2R or 7R, parent or metabolite 1R as labelled, read-out: t1/2 (brain)", "result": 121, "unit": "min"}, {"measurement": "concentration at 0.083 h", "setting": "[2]; male, Sprague Dawley, rat, plasma, 10 mg/kg, rat plasma, 0.083 h after 10 mg/kg po of 2R or 7R, read-out: Mean plasma concentration", "result": 31, "unit": "ng/mL"}, {"measurement": "concentration at 0.25 h", "setting": "[2]; male, Sprague Dawley, rat, plasma, 10 mg/kg, rat plasma, 0.25 h after 10 mg/kg po of 2R or 7R, read-out: Mean plasma concentration", "result": 889, "unit": "ng/mL"}, {"measurement": "concentration at 0.5 h", "setting": "[2]; male, Sprague Dawley, rat, plasma, 10 mg/kg, rat plasma, 0.5 h after 10 mg/kg po of 2R or 7R, read-out: Mean plasma concentration", "result": 1700, "unit": "ng/mL"}, {"measurement": "concentration at 1 h", "setting": "[2]; male, Sprague Dawley, rat, plasma, 10 mg/kg, rat plasma, 1 h after 10 mg/kg po of 2R or 7R, read-out: Mean plasma concentration", "result": 2110, "unit": "ng/mL"}, {"measurement": "concentration at 2 h", "setting": "[2]; male, Sprague Dawley, rat, plasma, 10 mg/kg, rat plasma, 2 h after 10 mg/kg po of 2R or 7R, read-out: Mean plasma concentration", "result": 1410, "unit": "ng/mL"}, {"measurement": "concentration at 4 h", "setting": "[2]; male, Sprague Dawley, rat, plasma, 10 mg/kg, rat plasma, 4 h after 10 mg/kg po of 2R or 7R, read-out: Mean plasma concentration", "result": 690, "unit": "ng/mL"}, {"measurement": "Cmax", "setting": "[2]; male, Sprague Dawley, rat, plasma, po, 10 mg/kg, rat plasma after 10 mg/kg po of 2R or 7R, parent or metabolite 1R as labelled", "result": 2110, "unit": "ng/mL"}, {"measurement": "AUC(0-t)", "setting": "[2]; male, Sprague Dawley, rat, plasma, po, 10 mg/kg, rat plasma after 10 mg/kg po of 2R or 7R, parent or metabolite 1R as labelled, read-out: AUC0-last (plasma) (converted)", "result": 8630, "unit": "ng·h/mL"}, {"measurement": "half-life", "setting": "[2]; male, Sprague Dawley, rat, plasma, po, 10 mg/kg, rat plasma after 10 mg/kg po of 2R or 7R, parent or metabolite 1R as labelled, read-out: t1/2 (plasma)", "result": 182, "unit": "min"}, {"measurement": "AUC0-last (brain)", "setting": "[2]; [3]", "result": 820350, "unit": "ng·min/g"}, {"measurement": "Cmax (brain)", "setting": "[2]; [3]", "result": 3502, "unit": "ng/g"}, {"measurement": "AUC0-last (brain)", "setting": "[2]; [4]", "result": 912802, "unit": "ng·min/g"}, {"measurement": "Cmax (brain)", "setting": "[2]; [4]", "result": 2335, "unit": "ng/g"}, {"measurement": "t1/2 (brain)", "setting": "[2]; [4]", "result": 185, "unit": "min"}, {"measurement": "Mean brain concentration", "setting": "[2]; rat brain, 0.083 h after 10 mg/kg po of 2R or 7R, listed as 1R as metabolite of 7R", "result": 59, "unit": "ng/g"}, {"measurement": "Mean brain concentration", "setting": "[2]; rat brain, 0.25 h after 10 mg/kg po of 2R or 7R, listed as 1R as metabolite of 7R", "result": 1233, "unit": "ng/g"}, {"measurement": "Mean brain concentration", "setting": "[2]; rat brain, 0.5 h after 10 mg/kg po of 2R or 7R, listed as 1R as metabolite of 7R", "result": 1623, "unit": "ng/g"}, {"measurement": "Mean brain concentration", "setting": "[2]; rat brain, 1 h after 10 mg/kg po of 2R or 7R, listed as 1R as metabolite of 7R", "result": 2075, "unit": "ng/g"}, {"measurement": "Mean brain concentration", "setting": "[2]; rat brain, 2 h after 10 mg/kg po of 2R or 7R, listed as 1R as metabolite of 7R", "result": 2335, "unit": "ng/g"}, {"measurement": "Mean brain concentration", "setting": "[2]; rat brain, 4 h after 10 mg/kg po of 2R or 7R, listed as 1R as metabolite of 7R", "result": 1176, "unit": "ng/g"}, {"measurement": "AUC0-last (plasma)", "setting": "[2]; [5]", "result": 503548, "unit": "ng·min/mL"}, {"measurement": "Cmax (plasma)", "setting": "[2]; [5]", "result": 1564, "unit": "ng/mL"}, {"measurement": "Mean plasma concentration", "setting": "[2]; rat plasma, 0.083 h after 10 mg/kg po of 2R or 7R, listed as 1R as metabolite of 7R", "result": 16, "unit": "ng/mL"}, {"measurement": "Mean plasma concentration", "setting": "[2]; rat plasma, 0.25 h after 10 mg/kg po of 2R or 7R, listed as 1R as metabolite of 7R", "result": 525, "unit": "ng/mL"}, {"measurement": "Mean plasma concentration", "setting": "[2]; rat plasma, 0.5 h after 10 mg/kg po of 2R or 7R, listed as 1R as metabolite of 7R", "result": 960, "unit": "ng/mL"}, {"measurement": "Mean plasma concentration", "setting": "[2]; rat plasma, 1 h after 10 mg/kg po of 2R or 7R, listed as 1R as metabolite of 7R", "result": 1360, "unit": "ng/mL"}, {"measurement": "Mean plasma concentration", "setting": "[2]; rat plasma, 2 h after 10 mg/kg po of 2R or 7R, listed as 1R as metabolite of 7R", "result": 1564, "unit": "ng/mL"}, {"measurement": "Mean plasma concentration", "setting": "[2]; rat plasma, 4 h after 10 mg/kg po of 2R or 7R, listed as 1R as metabolite of 7R", "result": 705, "unit": "ng/mL"}]}
{"smiles": "N[C@]1(c2cccc(F)c2)CCCCC1=O", "note": "[Compound 3S]", "values": [{"measurement": "half-life at 1 μM", "setting": "[1]", "result": "> 145", "unit": "min"}, {"measurement": "microsomal CLint at 1 μM", "setting": "[1]", "result": "< 9.6", "unit": "µL/min/mg"}]}
